# Experimental data published in US12304890B2, “R-type pyridyloxycarboxylic acid, salt and ester derivative thereof, and preparation method therefor, and herbicidal composition and application thereof” (Qingdao Kingagroot Chemical Compound Co., Ltd., priority 2018, dated 2025).
# Tests used:
# Assay type in all cases: in vivo
# rice = test: Post-emergence test experiment, rice (crop selectivity); settings: 200 g a.i./ha, 3 weeks
# Description: (§1) The above described growth inhibition rate is fresh weight inhibition rate.
# (§2) Post-emergence test experiment: Monocotyledonous and dicotyledonous weed seeds and main crop seeds (i. e. wheat, corn, rice, soybean, cotton, oilseed, millet and sorghum.) were put into a plastic pot loaded with soil. Then covered with 0.5-2 cm soil, the seeds were allowed to grow in good greenhouse environment. The test plants were treated at 2-3 leaf stage 2 weeks after sowing. The test compounds of the invention were dissolved with acetone respectively, then added with tween-80, and using 1.5 liters per hectare of an emulsible concentrate of methyl oleate as a synergist, and diluted by certain amount of water to certain concentration. The solution was sprayed to the plants with a sprayer. Then the plants were cultured for 3 weeks in the greenhouse, and the experiment result of weed controlling effect was listed in tables 4-5.
# Echinochloa crusgalli = test: Post-emergence test experiment, Echinochloa crusgalli; settings: for inhibition at 200 g/ha / Echinochloa crusgalli, activity level (growth inhibition rate): 200 g a.i./ha, weed resistant to ALS inhibitor and ACCe herbicides; for Activity level (growth inhibition rate), Echinochloa crusgalli: 1000 g a.i./ha, 3 weeks in greenhouse, fresh weight inhibition
# How it was run: (§3)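 Pot-grown plants, sown 2 weeks earlier and at 2-3 leaves, received a foliar spray of compound in acetone/tween-80 with methyl oleate adjuvant. Effect was expressed as fresh weight inhibition rate after three further greenhouse weeks.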
# Digitaria sanguinalis = test: Post-emergence test experiment, Digitaria sanguinalis; settings: for inhibition at 200 g/ha / Digitaria sanguinalis, activity level (growth inhibition rate): 200 g a.i./ha, weed resistant to cyhalofop-butyl; for Activity level (growth inhibition rate), Digitaria sanguinalis: 1000 g a.i./ha, 3 weeks in greenhouse, fresh weight inhibition
# How it was run: as §3
# [1] = tested on: Semen Euphorbiae Lathyridis; test: Post-emergence test experiment, Semen Euphorbiae Lathyridis; settings: 3 weeks; for inhibition at 200 g/ha / Semen Euphorbiae Lathyridis, activity level (growth inhibition rate): 200 g a.i./ha, weed resistant to cyhalofop-butyl
# Description: as §1, §2
# [2] = tested on: Monocotyledonous and dicotyledonous weed seeds and main crop seeds; test: Post-emergence test experiment, other weeds and crops (Table 4, 1000 g a.i./ha); settings: 3 weeks in greenhouse, fresh weight inhibition
# How it was run: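 Weed and crop seeds (wheat, corn, rice, soybean, cotton, oilseed, millet, sorghum) sown in soil pots in a greenhouse and sprayed at 2-3 leaf stage, 2 weeks after sowing. Compound in acetone/tween-80 with methyl oleate concentrate (1.5 L/ha) as synergist. Effect recorded as fresh-weight growth inhibition rate.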
# [3] = Echinochloa crus-galli, 504 h, 3 weeks, read-out: Echinochloa crusgalli, activity level (growth inhibition rate)
# [4] = Digitaria sanguinalis, 504 h, 3 weeks, read-out: Digitaria sanguinalis, activity level (growth inhibition rate)
# [5] = 504 h, read-out: Semen Euphorbiae Lathyridis, activity level (growth inhibition rate)
Compound,inhibition at 200 g/ha (Echinochloa crusgalli; [3]),inhibition at 200 g/ha (Digitaria sanguinalis; [4]),"inhibition at 200 g/ha [1, 5]","Activity level (growth inhibition rate), Echinochloa crusgalli (Echinochloa crusgalli)","Activity level (growth inhibition rate), Digitaria sanguinalis (Digitaria sanguinalis)","Activity level (growth inhibition rate), Abutilon theophrasti Medic. [2]","Activity level (growth inhibition rate), Galium aparine [2]","Activity level (growth inhibition rate), Monochoria Vaginalis [2]",other results
CC(Oc1nc(F)c(Cl)c(N)c1Cl)C(=O)O (stereo not shown) [reference compound],20 to 40%,40 to 60%,40 to 60%,,,,,,"rice, activity level (growth inhibition rate) (rice): 2 (Level 2: the growth inhibition rate is equal to or greater than 20% and less than 40%)"
CC(C)=NOC(=O)C(C)Oc1nc(F)c(Cl)c(N)c1Cl (stereo not shown) [Compound 2-292],,,,5 (Level 5: the growth inhibition rate is greater than 85%),5 (Level 5: the growth inhibition rate is greater than 85%),5 (Level 5: the growth inhibition rate is greater than 85%),5 (Level 5: the growth inhibition rate is greater than 85%),5 (Level 5: the growth inhibition rate is greater than 85%),"Echinochloa crusgalli, activity level (growth inhibition rate) (Echinochloa crusgalli; 3 weeks): 5 (Level 5: the growth inhibition rate is greater than 85%); Digitaria sanguinalis, activity level (growth inhibition rate) (Digitaria sanguinalis; 3 weeks): 5 (Level 5: the growth inhibition rate is greater than 85%); Semen Euphorbiae Lathyridis, activity level (growth inhibition rate) [1]: 5 (Level 5: the growth inhibition rate is greater than 85%)"
CCOC(=O)[C@H](C)Oc1nc(F)c(Cl)c(N)c1Cl [reference compound],5 to 20%,5 to 20%,5 to 20%,,,,,,
"COc1cc(OC)nc(Oc2cccc(Oc3nc(OC)cc(OC)n3)c2C(=O)O)n1 [bispyribac-sodium, reference compound]",,,,,,,,,"inhibition at 100 g/ha (Echinochloa crusgalli; Echinochloa crus-galli, 504 h, 100 g a.i./ha, 3 weeks, resistant weed, read-out: Echinochloa crusgalli, activity level (growth inhibition rate)): 5 to 20%; inhibition at 100 g/ha (Digitaria sanguinalis; Digitaria sanguinalis, 504 h, 100 g a.i./ha, 3 weeks, resistant weed, read-out: Digitaria sanguinalis, activity level (growth inhibition rate)): 5 to 20%; inhibition at 100 g/ha ([1]; 504 h, 100 g a.i./ha, resistant weed, read-out: Semen Euphorbiae Lathyridis, activity level (growth inhibition rate)): < 5%"
COC(=O)[C@@H](C)Oc1ncc(Cl)c(N)c1Cl [Compound 2-30],,,,5 (Level 5: the growth inhibition rate is greater than 85%),5 (Level 5: the growth inhibition rate is greater than 85%),5 (Level 5: the growth inhibition rate is greater than 85%),5 (Level 5: the growth inhibition rate is greater than 85%),5 (Level 5: the growth inhibition rate is greater than 85%),"Echinochloa crusgalli, activity level (growth inhibition rate) (Echinochloa crusgalli; 3 weeks): 4 (Level 4: the growth inhibition rate is equal to or greater than 60% and less than 85%); Digitaria sanguinalis, activity level (growth inhibition rate) (Digitaria sanguinalis; 3 weeks): 5 (Level 5: the growth inhibition rate is greater than 85%); Semen Euphorbiae Lathyridis, activity level (growth inhibition rate) [1]: 4 (Level 4: the growth inhibition rate is equal to or greater than 60% and less than 85%)"
COC(=O)[C@H](C)Oc1ncc(Cl)c(N)c1Cl [reference compound],< 5%,< 5%,< 5%,,,,,,
COC(=O)C(C)Oc1ncc(Cl)c(N)c1Cl (stereo not shown) [reference compound],20 to 40%,40 to 60%,20 to 40%,,,,,,
C[C@H](Oc1nc(F)c(Cl)c(N)c1Cl)C(=O)O [reference compound],5 to 20%,5 to 20%,5 to 20%,,,,,,
"CC(Oc1nc(F)c(Cl)c(N)c1Cl)C(=O)OCC1CCCO1 (stereo not shown) [drawing 482, reference compound]",40 to 60%,,,,,,,,"rice, activity level (growth inhibition rate) (rice): 0 (Level 0: the growth inhibition rate is less than 5%)"
C[C@H](Oc1nc(Cl)c(Cl)c(N)c1Cl)C(=O)O [reference compound],5 to 20%,5 to 20%,5 to 20%,,,,,,
CC(Oc1nc(Cl)c(Cl)c(N)c1Cl)C(=O)O (stereo not shown) [reference compound],20 to 40%,40 to 60%,40 to 60%,,,,,,
CCCC(C)OC(=O)[C@@H](C)Oc1nc(F)c(Cl)c(N)c1Cl (stereo partly shown) [Compound 2-93],,,,5 (Level 5: the growth inhibition rate is greater than 85%),5 (Level 5: the growth inhibition rate is greater than 85%),5 (Level 5: the growth inhibition rate is greater than 85%),5 (Level 5: the growth inhibition rate is greater than 85%),5 (Level 5: the growth inhibition rate is greater than 85%),
CC(Oc1nc(F)c(Cl)c(N)c1Cl)C(=O)SCc1ccc(Br)cc1 (stereo not shown) [Compound 2-325],,,,5 (Level 5: the growth inhibition rate is greater than 85%),5 (Level 5: the growth inhibition rate is greater than 85%),5 (Level 5: the growth inhibition rate is greater than 85%),5 (Level 5: the growth inhibition rate is greater than 85%),5 (Level 5: the growth inhibition rate is greater than 85%),
COC(=O)[C@@H](C)Oc1nc(F)c(Cl)c(NC(=O)c2ccccc2)c1Cl [Compound 2-379],,,,5 (Level 5: the growth inhibition rate is greater than 85%),5 (Level 5: the growth inhibition rate is greater than 85%),5 (Level 5: the growth inhibition rate is greater than 85%),5 (Level 5: the growth inhibition rate is greater than 85%),5 (Level 5: the growth inhibition rate is greater than 85%),
CCCC(C)SC(=O)[C@@H](C)Oc1nc(F)c(Cl)c(N)c1Cl (stereo partly shown) [Compound 2-94],,,,5 (Level 5: the growth inhibition rate is greater than 85%),5 (Level 5: the growth inhibition rate is greater than 85%),5 (Level 5: the growth inhibition rate is greater than 85%),5 (Level 5: the growth inhibition rate is greater than 85%),5 (Level 5: the growth inhibition rate is greater than 85%),
CC(Oc1nc(F)c(Cl)c(N)c1Cl)C(=O)OC(N)C(=O)O (stereo not shown) [Compound 2-371],,,,5 (Level 5: the growth inhibition rate is greater than 85%),5 (Level 5: the growth inhibition rate is greater than 85%),5 (Level 5: the growth inhibition rate is greater than 85%),5 (Level 5: the growth inhibition rate is greater than 85%),5 (Level 5: the growth inhibition rate is greater than 85%),
C[C@@H](Oc1nc(F)c(Cl)c(N)c1Cl)C(=O)OCc1cccnc1 [Compound 2-346],,,,5 (Level 5: the growth inhibition rate is greater than 85%),5 (Level 5: the growth inhibition rate is greater than 85%),5 (Level 5: the growth inhibition rate is greater than 85%),5 (Level 5: the growth inhibition rate is greater than 85%),5 (Level 5: the growth inhibition rate is greater than 85%),
